Experiment: Effect of rimonabant on the weight gain induced by treatment with risperidone (cumulative weight gain and feed consumption)
Assay type: in vivo
Details: female Wistar rats on fat-rich feed, risperidone 0.3 mg/kg i.p., rimonabant 1 mg/kg p.o. (or vehicle p.o.)
Method: Female Wistar rats, fed with a fat-rich feed for the three days preceding the treatment and during the treatment, are used.
Groups of 15 animals receive each day: • group 1: risperidone (0.3 mg/kg, i.p.) and the vehicle (p.o.); • group 2: risperidone (0.3 mg/kg, i.p.) and rimonabant (1 mg/kg, p.o.); • group 3: the two vehicles (i.p. and p.o.);
On the ninth day of the treatment, the cumulative weight gain over the nine days of treatment and the feed consumption on day 9 are measured.

## Cc1nc2n(c(=O)c1CCN1CCC(c3noc4cc(F)ccc34)CC1)CCCC2 [risperidone]
15/group, daily dosing for 9 days
  Cumulative weight gain over the nine days of treatment: 23.5 g ± 1.7
Day 9 of treatment
  Mean feed intake on the ninth day: 15.0 g ± 0.7
Nine days of treatment
  Number of rats/group (%) with a weight gain <20 g: 20%
  Number of rats/group (%) with a weight gain >20 g: 80%
